logP data for 58 molecules are collected here from US20100081679A1, “DIAMINOPYRIMIDINES AS FUNGICIDES” (Bayer CropScience AG, priority 2007, published 2010).

Marks after values point to notes of the source that are not given here.

This series is described as follows: logP determination via retention times, calibrated with unbranched alkan-2-ones. The format is physicochemical.
Setting [1] is: method **: HPLC reversed-phase C 18, 43° C., 0.1% aqueous phosphoric acid and acetonitrile, linear gradient 10% to 95% acetonitrile.
The mark [2] stands for this setting: method *: HPLC reversed-phase C 18, temperature 40° C., mobile phase 0.1% aqueous formic acid and acetonitrile, linear gradient 10% to 95% acetonitrile.
Where [3] appears, read: HPLC on reversed-phase C18, method *: 40° C., 0.1% aqueous formic acid and acetonitrile, linear gradient 10% to 95% acetonitrile.
Setting [4] is: HPLC on reversed-phase C 18, EEC Directive 79/831 Annex V.A8, method *: 40° C., 0.1% aqueous formic acid and acetonitrile, linear gradient 10% to 95% acetonitrile.
Where [5] appears, read: method *: HPLC reversed-phase C18, 40° C., 0.1% aqueous formic acid and acetonitrile, linear gradient 10% to 95% acetonitrile.
The mark [6] stands for this setting: HPLC reversed-phase C 18, EEC Directive 79/831 Annex V.A8, method *: 40° C., 0.1% aqueous formic acid and acetonitrile, linear gradient 10% to 95% acetonitrile.
Setting [7] is: method **: HPLC reversed-phase C 18, temperature 43° C., mobile phase 0.1% aqueous phosphoric acid and acetonitrile, linear gradient 10% to 95% acetonitrile.
Setting [8] is: HPLC on reversed-phase C18 column (EEC Directive 79/831 Annex V.A8), method *: 40° C., 0.1% aqueous formic acid and acetonitrile, linear gradient 10% to 95% acetonitrile.
[9] abbreviates: method **: HPLC, reversed-phase C 18, 43° C., mobile phase 0.1% aqueous phosphoric acid and acetonitrile, linear gradient from 10% to 95% acetonitrile.
Where [10] appears, read: method *: HPLC, reversed-phase C 18, 40° C., mobile phase 0.1% aqueous formic acid and acetonitrile, linear gradient from 10% to 95% acetonitrile.
The mark [11] stands for this setting: HPLC on reversed-phase C18, method *: 40° C., mobile phase 0.1% aqueous formic acid and acetonitrile, linear gradient 10% to 95% acetonitrile.

With `Brc1cnc(Nc2cccc(I)c2)nc1NC1CC1` [compound 860], under “HPLC reversed-phase C 18, EEC Directive 79/831 Annex V.A8, method **: 43° C., 0.1% aqueous phosphoric acid and acetonitrile, linear gradient 10% to 95% acetonitrile”, the logP is on record as 3.34**.

Turning to `CCOC1(Nc2nc(Nc3ccccc3)ncc2Cl)CC1` [compound 39], the logP under setting [1] is on record as 2.23**.

`CC(=O)Nc1ccc(Nc2ncc(F)c(NC3CC3)n2)cc1Cl` [compound 580]: the logP under setting [2] is recorded as 1.32*.

Take `CC(C)(C)C(=O)Cc1ccc(Nc2ncc(F)c(NC3CC3)n2)cc1` [compound 589]: the logP under setting [2] is on record as 1.92*.

With `CCC(=O)Nc1ccc(Nc2ncc(Cl)c(NC3CC3)n2)cc1` [compound 711], the logP under setting [3] is 1.24*.

With `CC(C)(CCl)C(=O)Nc1ccc(Nc2ncc(Cl)c(NCC3CC3)n2)cc1` [compound 556], the logP under setting [4] is 2.02*.

As for `O=S(=O)(Cc1ccc(Nc2ncc(Cl)c(NC3CC3)n2)cc1)NC1CC1` [compound 334], under “HPLC on reversed-phase C18, method **: 43° C., mobile phase 0.1% aqueous phosphoric acid and acetonitrile, linear gradient 10% to 95% acetonitrile”, the logP is 1.58**.

Take `CSc1cc(Nc2ncc(Br)c(NCC3CC3)n2)ccc1C` [compound 459]: the logP under setting [5] is on record as 2.58*.

On to `CN(C)S(=O)(=O)c1cccc(Nc2ncc(C#N)c(NC3CC3)n2)c1` [compound 617], for which the logP under setting [2] is recorded as 2.36*.

For `O=C1Cc2cc(Nc3ncc(Cl)c(NC4CC4)n3)ccc2N1` [Example 56], the logP under setting [5] was 1.05*.

In the case of `CC(C)(C)CSCc1ccc(Nc2ncc(Cl)c(NC3CC3)n2)cc1` [compound 823], the logP under setting [6] was 3.78*.

For `CNC(=O)c1ccc(Nc2ncc(C(F)(F)F)c(NC3CC3)n2)cc1` [compound 651], the logP was 1.81** under setting [7] and 1.78*; under setting [2].

As for `CN(c1nc(Nc2ccccc2)ncc1Cl)C1CC1` [compound 734], the logP (HPLC on reversed-phase C 18, method **: 43° C., 0.1% aqueous phosphoric acid and acetonitrile, linear gradient 10% to 95% acetonitrile) is on record as 2.7**.

On to `CC(C)(C)C(=O)Nc1cccc(Nc2ncc(C(F)(F)F)c(NCC3CC3)n2)c1` [compound 205], for which the logP under setting [8] is on record as 2.77*.

For `Fc1cc(Cl)ccc1Nc1ncc(Cl)c(NC2CC2)n1` [compound 947], under setting [3], the logP was 3.03*.

Turning to `N#CCc1cc(Nc2ncc(Cl)c(NC3CC3)n2)ccc1F` [compound 813], the logP under setting [6] is on record as 1.76*.

On to `CCSc1cccc(Nc2ncc(Cl)c(NC3CC3)n2)c1.Cc1ccc(S(=O)(=O)O)cc1` [compound 440], for which, under setting [5], the logP is 2.73*.

As for `CC(C)(C)OC(=O)NCc1ccc(Nc2ncc(Cl)c(NC3CC3)n2)cc1` [compound 90], under setting [5], the logP is 2.15*.

Regarding `Clc1cnc(Nc2cccc(CN3CCCC3)c2)nc1NC1CC1` [compound 1043], the logP under setting [9] was 0.92**.

As to `CC1CC1Nc1nc(Nc2ccccc2)ncc1Cl` (stereo not drawn) [compound 1008], the logP under setting [9] is on record as 2**.

Turning to `CCCCSc1cccc(Nc2ncc(Cl)c(NC3CC3)n2)c1.Cc1ccc(S(=O)(=O)O)cc1` [compound 443], under setting [5], the logP is listed as 3.79*.

As to `CSc1ccc(Nc2ncc(Br)c(NC3CC3)n2)cc1Cl` [compound 746], the logP under setting [3] was 3.03*.

In the case of `O=C(Nc1cccc(Nc2ncc(Br)c(NCC3CC3)n2)c1)Oc1ccccc1` [compound 466], the logP under setting [4] is reported as 2.36*.

In the case of `CSc1cc(Nc2ncc(Cl)c(NCC3CC3)n2)ccc1C` [compound 547], the logP under setting [4] is reported as 2.45*.

In the case of `CCNC(=O)c1cccc(Nc2ncc(Br)c(NC3CC3)n2)c1` [compound 702], the logP under setting [3] is listed as 1.44*.

Turning to `Oc1ccc(Nc2ncc(Cl)c(NCC3CC3)n2)cc1` [compound 680], the logP under setting [3] was 1.36*.

Regarding `CC(C)Oc1ccc(Nc2ncc(Cl)c(NC3CC3)n2)cc1` [compound 989], the logP under setting [10] is reported as 1.97*.

Consider `CC(=O)c1ccc(Nc2ncc(Br)c(NCC3CC3)n2)cc1` [compound 456], for which the logP under setting [5] is listed as 2.26*.

`CC(C)(C)C(=O)Nc1cccc(Nc2ncc(Br)c(NCC3CC3)n2)c1` [compound 451]: under setting [5], the logP was 2.06*.

Turning to `O=C(Nc1ccccc1)Nc1ccc(Nc2ncc(Cl)c(NC3CC3)n2)cc1` [compound 739], the logP under setting [3] is 1.75*.

On to `FC(F)Oc1ccc(Nc2ncc(Cl)c(NC3CC3)n2)cc1` [compound 288], for which the logP under setting [11] is given as 2.11*.

In the case of `CCC(=O)Nc1cccc(Nc2ncc(Cl)c(NCC3CC3)n2)c1` [compound 508], the logP under setting [4] was 1.61*.

For the molecule `COC(=O)Nc1ccc(Nc2ncc(C#N)c(NC3CC3)n2)cc1` [compound 159], the logP under setting [3] is reported as 1.91*.

With `OCc1cccc(Nc2ncc(Cl)c(NC3CC3)n2)c1` [Example 82], the logP under setting [5] was 1.22*.

Take `N#Cc1cc(Nc2ncc(Cl)c(NC3CC3)n2)cc(C(F)(F)F)c1` [compound 1017]: the logP under setting [9] was 3.69**.

For `FC(F)(F)Sc1ccccc1Nc1ncc(Cl)c(NC2CC2)n1` [compound 944], the logP under setting [3] is given as 3.72*.

Take `CN1CCN(C(=O)c2cccc(Nc3ncc(Cl)c(NC4CC4)n3)c2)CC1` [compound 1059]: under setting [10], the logP is 0.59*.

Consider `COC(c1cccc(Nc2ncc(Cl)c(NCC3CC3)n2)c1)C(F)(F)F` (stereo not drawn) [compound 792], for which the logP under setting [6] is reported as 2.74*.

Turning to `FC(F)(F)c1nc2ccc(Nc3ncc(Cl)c(NC4CC4)n3)cc2[nH]1` [Example 68], the logP under setting [5] was 1.55*.

Take `CC(=O)N1CCc2cc(Nc3ncc(Cl)c(NCC4CC4)n3)ccc21` [compound 518]: the logP under setting [4] is 1.59*.

On to `FC(F)(F)Sc1ccc(Nc2ncc(Br)c(NC3CC3)n2)cc1` [compound 745], for which the logP under setting [3] is 3.9*.

As to `O=S(=O)(Cc1cccc(Nc2ncc(Cl)c(NC3CC3)n2)c1)NC1CC1` [compound 372], under setting [5], the logP is listed as 1.59*.

Consider `O=S(=O)(Cc1cccc(Nc2ncc(Cl)c(NC3CC3)n2)c1)N1CCCCC1` [compound 262], for which the logP under setting [8] is listed as 2.24*.

Take `O=S(=O)(Nc1ccccc1)c1ccc(Nc2ncc(Cl)c(NC3CC3)n2)cc1` [compound 27]: the logP under setting [1] was 2.56**.

Turning to `CC(C)OC(=O)Nc1cccc(Nc2ncc(Cl)c(NC3CC3)n2)c1` [compound 302], under setting [11], the logP is 1.99*.

As for `CC(=O)Nc1ccc(Nc2ncc(Cl)c(NCC3CC3)n2)cc1Cl` [compound 505], the logP under setting [4] is reported as 1.68*.

Take `N#Cc1ccc(Nc2ncc(Br)c(NC3CC3)n2)cc1` [compound 744]: the logP under setting [3] was 2.43*.

In the case of `OCc1cccc(Nc2ncc(Br)c(NC3CC3)n2)c1` [compound 766], under setting [3], the logP is on record as 1.37*.

As to `O=C(c1ccc(Nc2ncc(Cl)c(NC3CC3)n2)cc1)N1CCCCC1` [compound 723], the logP under setting [3] is given as 1.97*.

With `CC(C)c1cccc(Nc2ncc(C(F)(F)F)c(NC3CC3)n2)c1` [compound 973], the logP under setting [3] was 4.14*.

Consider `O=C(Nc1cccc(Nc2ncc(Cl)c(NC3CC3)n2)c1)c1ccco1` [Example 99], for which the logP under setting [3] was 1.62*.

Regarding `FC(F)C(F)(F)Oc1cccc(Nc2ncc(Br)c(NCC3CC3)n2)c1` [compound 493], the logP under setting [4] is listed as 3.1*.

Turning to `Fc1cc(F)cc(Nc2ncc(Cl)c(NCC3CC3)n2)c1` [compound 603], the logP under setting [2] was 3.42*.

As to `CC(=O)Nc1cccc(Nc2ncc(C(F)(F)F)c(NC3CC3)n2)c1` [compound 649], the logP under setting [7] is recorded as 1.77** and the logP under setting [2] is 1.78*;.

`N#Cc1ccc(Nc2ncc(F)c(NC3CC3)n2)cc1` [compound 575]: the logP under setting [2] is listed as 1.73*.

Consider `CC(C)(C)C(=O)Cc1ccc(Nc2ncc(C(F)(F)F)c(NCC3CC3)n2)cc1` [compound 210], for which the logP under setting [8] was 3.41*.

In the case of `CCC(C)c1ccc(Nc2ncc(Cl)c(NC3CC3)n2)cc1` (racemic) [compound 954], the logP under setting [3] is 2.77*.

Turning to `O=C1CCCN1c1ccc(Nc2ncc(Cl)c(NCC3CC3)n2)cc1` [compound 154], the logP under setting [3] was 1.5*.
